Reference: ChEMBL document CHEMBL1139145, “Inhibition of cancer cell adhesion by heterochiral Pro-containing RGD mimetics” (Bioorg Med Chem Lett, 2007)
Residues, ends and D or L forms follow the SMILES beside them.

Target: Integrin alpha-V/beta-3 (Homo sapiens, UniProt P05106+P06756)
Assay: Inhibition of integrin alpha-v-beta-3 receptor-mediated human SK-MEL-24 cell adhesion to fibronectin by fluorimetry
Type: protein-complex assay

Integrin alpha-V/beta-3, sequence (P05106 27-788 limits assumed): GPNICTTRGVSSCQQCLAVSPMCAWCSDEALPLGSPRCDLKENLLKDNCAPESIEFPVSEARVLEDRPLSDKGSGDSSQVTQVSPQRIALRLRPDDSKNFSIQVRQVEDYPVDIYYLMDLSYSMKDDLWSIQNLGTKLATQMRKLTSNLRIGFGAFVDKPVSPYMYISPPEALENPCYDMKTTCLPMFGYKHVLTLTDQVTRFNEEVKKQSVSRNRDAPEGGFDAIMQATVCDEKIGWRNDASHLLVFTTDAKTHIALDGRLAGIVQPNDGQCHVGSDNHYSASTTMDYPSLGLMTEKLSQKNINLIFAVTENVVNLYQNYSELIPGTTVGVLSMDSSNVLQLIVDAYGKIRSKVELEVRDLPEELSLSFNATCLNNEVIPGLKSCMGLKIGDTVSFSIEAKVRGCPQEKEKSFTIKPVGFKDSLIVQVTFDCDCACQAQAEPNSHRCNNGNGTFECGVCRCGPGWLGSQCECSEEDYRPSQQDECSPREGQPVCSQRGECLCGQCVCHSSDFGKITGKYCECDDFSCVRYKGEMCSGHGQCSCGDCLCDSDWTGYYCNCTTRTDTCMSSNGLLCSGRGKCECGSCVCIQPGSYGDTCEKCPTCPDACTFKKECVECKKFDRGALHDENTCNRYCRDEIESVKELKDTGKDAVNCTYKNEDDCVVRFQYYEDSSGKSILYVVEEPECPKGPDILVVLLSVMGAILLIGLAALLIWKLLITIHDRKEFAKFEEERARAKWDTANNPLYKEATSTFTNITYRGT
Integrin alpha-V/beta-3, sequence (P06756 31-889 limits assumed): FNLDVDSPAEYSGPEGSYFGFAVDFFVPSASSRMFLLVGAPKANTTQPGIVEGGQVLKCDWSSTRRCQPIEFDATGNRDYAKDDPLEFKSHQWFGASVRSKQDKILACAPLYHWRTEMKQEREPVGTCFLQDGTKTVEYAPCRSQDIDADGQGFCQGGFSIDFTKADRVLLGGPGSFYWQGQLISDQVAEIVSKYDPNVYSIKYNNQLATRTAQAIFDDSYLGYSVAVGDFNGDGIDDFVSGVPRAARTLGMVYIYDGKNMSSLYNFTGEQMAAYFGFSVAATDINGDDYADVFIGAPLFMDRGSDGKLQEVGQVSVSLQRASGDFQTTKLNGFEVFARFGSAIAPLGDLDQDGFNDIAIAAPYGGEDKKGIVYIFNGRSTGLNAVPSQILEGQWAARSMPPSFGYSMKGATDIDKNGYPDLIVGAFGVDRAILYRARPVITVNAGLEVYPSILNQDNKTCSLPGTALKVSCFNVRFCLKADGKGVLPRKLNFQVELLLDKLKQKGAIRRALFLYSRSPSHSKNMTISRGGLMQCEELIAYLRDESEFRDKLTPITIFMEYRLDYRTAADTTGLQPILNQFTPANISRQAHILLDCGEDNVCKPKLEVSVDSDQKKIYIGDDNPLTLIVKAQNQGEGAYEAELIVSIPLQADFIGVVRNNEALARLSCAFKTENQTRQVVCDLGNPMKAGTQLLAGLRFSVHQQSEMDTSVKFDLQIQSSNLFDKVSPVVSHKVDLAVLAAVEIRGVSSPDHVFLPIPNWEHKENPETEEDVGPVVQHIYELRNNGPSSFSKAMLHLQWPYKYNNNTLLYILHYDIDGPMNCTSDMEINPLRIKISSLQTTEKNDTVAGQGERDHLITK
Integrin alpha-V/beta-3, sequence (P06756 891-1048 limits assumed): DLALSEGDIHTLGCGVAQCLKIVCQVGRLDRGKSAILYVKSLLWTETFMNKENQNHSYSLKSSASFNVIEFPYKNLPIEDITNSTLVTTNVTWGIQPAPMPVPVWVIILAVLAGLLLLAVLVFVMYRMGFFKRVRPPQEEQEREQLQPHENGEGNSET

Row | Compound | IC50 [nM]
1 | N=C(N)NCCCC(=O)N1CCC[C@@H]1C(=O)N[C@@H](CCC(=O)O)C(=O)NCc1ccccc1 | 2600
2 | N=C(N)NCCC(=O)N1CCC[C@@H]1C(=O)N[C@@H](CC(=O)O)C(=O)NCc1ccccc1 | > 100000
3 | Cc1ccc(S(=O)(=O)N[C@@H](CCCN=C(N)N)C(=O)N2CCC[C@@H]2C(=O)N[C@@H](CC(=O)O)C(=O)NCc2ccccc2)cc1 | 150
4 | CC(=O)N[C@@H](CC(=O)O)C(=O)N[C@@H](CCCN=C(N)N)C(=O)NCC(=O)N[C@@H](CC(=O)O)C(=O)N[C@@H](CO)C(=O)O (Ac-DRGDS-OH) | 20

Continued by falling IC50, values first:

Row | IC50 [nM] | Compound
5 | 230000 | NC(N)=NCCCCC(=O)N1CCC[C@@H]1C(=O)N[C@@H](CC(=O)O)C(=O)NCc1ccccc1
6 | 100000 | Cc1ccc(S(=O)(=O)N[C@@H](CCCNC(=N)N)C(=O)N2CCC[C@H]2C(=O)N[C@@H](CC(=O)O)C(=O)NCc2ccccc2)cc1
7 | 20000 | CCCNC(=O)[C@H](CC(=O)O)NC(=O)[C@H]1CCCN1C(=O)CCCN=C(N)N
8 | 1200 | NC(N)=NCCCC(=O)N1CCC[C@@H]1C(=O)NCCC(=O)O
9 | 35 | N=C(N)NCCC(=O)N1CCC[C@@H]1C(=O)N[C@@H](CCC(=O)O)C(=O)NCc1ccccc1
10 | 26 | N=C(N)NCCCC(=O)N1CCC[C@@H]1C(=O)N[C@@H](CC(=O)O)C(=O)NCc1ccccc1
